Results: paper PMC12250302, “Synthesis, Antimicrobial Activities, and Model of Action of Novel Tetralone Derivatives Containing Aminoguanidinium Moiety” (International Journal of Molecular Sciences, 2025)
≈ marks a conversion by molar mass, not a printed value.

How the values were obtained:
Experiment in all cases: MIC and MBC testing, broth microdilution
[1] = tested on: E. faecium ATCC 35667; type: cell-based, Enterococcus faecium; conditions: Enterococcus faecium, ATCC35667, E. faecium ATCC 35667; for MIC: 18 h, read-out: MIC; for MBC: read-out: MBC
Text: (§1) The minimum inhibitory concentrations (MICs) and minimum bactericidal concentrations (MBCs) of the synthesized compounds effective against ESKAPE strains, S. aureus clinical isolates, and MRSA were investigated by the broth dilution method. Levofloxacin is a broad-spectrum antibacterial agent that is widely used in the treatment of ESKAPE infections. Therefore, levofloxacin was selected as the positive control for the preliminary activity screening. DMSO (0.1%) was selected as the negative control.
(§2) The minimum inhibitory concentration (MIC) of all synthesized compounds was tested by the broth microdilution method. In brief, compounds dissolved in DMSO were diluted twice continuously in a 96-well plate with MH broth. The ESKAPE pathogens (E. coli ATCC 25922, S. aureus ATCC 29213, K. pneumoniae ATCC 700603, A. baumannii ATCC 19606, P. aeruginosa ATCC 27853, and E. faecium ATCC 35667), clinical S. aureus isolates (LMY45, LMY46, LMY47, and LMY48) and methicillin-resistant Staphylococcus aureus (MRSA-1 and MRSA-2) were cultured in MH broth to logarithmic growth phase and then diluted to 1 × 10^6 CFU/mL in MH broth. Subsequently, the diluted bacterial solution was mixed with the diluted compound solution in a 96-well plate and incubated at 37 °C for a duration of 18 h. The MIC of the compounds was recorded as the lowest concentration at which no visible growth was observed. […] Each concentration was replicated thrice.

[2] = tested on: S. aureus ATCC 29213; type: cell-based, Staphylococcus aureus; conditions: Staphylococcus aureus, ATCC29213, S. aureus ATCC 29213; for MIC: 18 h, read-out: MIC; for MBC: read-out: MBC
Text: as §1, §2

[3] = tested on: K. pneumoniae ATCC 700603; type: cell-based, Klebsiella pneumoniae; conditions: Klebsiella pneumoniae; for MIC: ATCC700603, 18 h, read-out: MIC; for MBC: ATCC700603, read-out: MBC
Text: as §1, §2

[4] = tested on: A. baumannii ATCC 19606; type: cell-based, Acinetobacter baumannii; conditions: Acinetobacter baumannii; for MIC: ATCC19606, 18 h, read-out: MIC; for MBC: ATCC19606, read-out: MBC
Text: as §1, §2

[5] = tested on: P. aeruginosa ATCC 27853; type: cell-based, Pseudomonas aeruginosa; conditions: Pseudomonas aeruginosa; for MIC: ATCC27853, 18 h, read-out: MIC; for MBC: ATCC27853, read-out: MBC
Text: as §1, §2

[6] = tested on: E. coli ATCC 25922; type: cell-based, Escherichia coli; conditions: Escherichia coli; for MIC: ATCC25922, 18 h, read-out: MIC; for MBC: ATCC25922, read-out: MBC
Text: as §1, §2

[7] = tested on: MRSA-1; type: cell-based, Staphylococcus aureus; conditions: Staphylococcus aureus, MRSA-1; for MIC: 18 h, read-out: MIC; for MBC: read-out: MBC
Procedure: (§3) Furthermore, the MBC values of the compounds were detected.
as §2, with “h.” for “h. The MIC of the compounds was recorded as the lowest concentration at which no visible growth was observed.”

[8] = tested on: MRSA-2; type: cell-based, Staphylococcus aureus; conditions: Staphylococcus aureus, MRSA-2; for MIC: 18 h, read-out: MIC; for MBC: read-out: MBC
Procedure: as §3
as §2, with “h.” for “h. The MIC of the compounds was recorded as the lowest concentration at which no visible growth was observed.”

[9] = tested on: clinical S. aureus isolate LMY45; type: cell-based, Staphylococcus aureus; conditions: Staphylococcus aureus, LMY45; for MIC: 18 h, read-out: MIC; for MBC: read-out: MBC
Procedure: as §3
as §2, with “h.” for “h. The MIC of the compounds was recorded as the lowest concentration at which no visible growth was observed.”

[10] = tested on: clinical S. aureus isolate LMY46; type: cell-based, Staphylococcus aureus; conditions: Staphylococcus aureus, LMY46; for MIC: 18 h, read-out: MIC; for MBC: read-out: MBC
Procedure: as §3
as §2, with “h.” for “h. The MIC of the compounds was recorded as the lowest concentration at which no visible growth was observed.”

[11] = tested on: clinical S. aureus isolate LMY47; type: cell-based, Staphylococcus aureus; conditions: Staphylococcus aureus, LMY47; for MIC: 18 h, read-out: MIC; for MBC: read-out: MBC
Procedure: as §3
as §2, with “h.” for “h. The MIC of the compounds was recorded as the lowest concentration at which no visible growth was observed.”

[12] = tested on: clinical S. aureus isolate LMY48; type: cell-based, Staphylococcus aureus; conditions: Staphylococcus aureus, LMY48; for MIC: 18 h, read-out: MIC; for MBC: read-out: MBC
Procedure: as §3
as §2, with “h.” for “h. The MIC of the compounds was recorded as the lowest concentration at which no visible growth was observed.”

SMILES | MIC [1] [µg/mL] | MBC [1] [µg/mL] | MIC [2] [µg/mL] | MBC [2] [µg/mL] | MIC [3] [µg/mL] | MIC [4] [µg/mL] | MBC [4] [µg/mL] | MIC [5] [µg/mL] | MIC [6] [µg/mL] | MIC [7] [µg/mL] | MIC [8] [µg/mL] | MBC [8] [µg/mL] | MIC [9] [µg/mL] | MBC [9] [µg/mL] | MIC [10] [µg/mL] | MBC [10] [µg/mL] | MIC [11] [µg/mL] | MBC [11] [µg/mL] | MIC [12] [µg/mL] | MBC [12] [µg/mL] | also measured
[H]/N=C(\N)NN=C1CCCc2cc(OCc3cc(F)cc(F)c3)ccc21 [Compound 1G, (E)-2-(6-((3,5-difluorobenzyl)oxy)-3,4-dihydronaphthalen-1(2H)-ylidene)hydrazine-1-carboximidamide] | 4 (≈ 11.6 µM) | 8 (≈ 23.2 µM) | 2 (≈ 5.81 µM) | 8 (≈ 23.2 µM) | 16 (≈ 46.5 µM) | 8 (≈ 23.2 µM) | 8 (≈ 23.2 µM) | 32 (≈ 92.9 µM) | 8 (≈ 23.2 µM) | 2 (≈ 5.81 µM) | 2 (≈ 5.81 µM) | 16 (≈ 46.5 µM) | 2 (≈ 5.81 µM) | 4 (≈ 11.6 µM) | 2 (≈ 5.81 µM) | 8 (≈ 23.2 µM) | 2 (≈ 5.81 µM) | 8 (≈ 23.2 µM) | 2 (≈ 5.81 µM) | 2 (≈ 5.81 µM) | MBC [3]: 16 µg/mL (≈ 46.5 µM); MBC [6]: 16 µg/mL (≈ 46.5 µM); MBC [7]: 16 µg/mL (≈ 46.5 µM)
[H]/N=C(\N)NN=C1CCCc2cc(OCc3ccc(F)c(F)c3)ccc21 [Compound 1H, (E)-2-(6-((3,4-difluorobenzyl)oxy)-3,4-dihydronaphthalen-1(2H)-ylidene)hydrazine-1-carboximidamide] | 4 (≈ 11.6 µM) | 16 (≈ 46.5 µM) | 2 (≈ 5.81 µM) | 8 (≈ 23.2 µM) | 16 (≈ 46.5 µM) | 8 (≈ 23.2 µM) | 8 (≈ 23.2 µM) | 32 (≈ 92.9 µM) | 4 (≈ 11.6 µM) | 2 (≈ 5.81 µM) | 2 (≈ 5.81 µM) | 8 (≈ 23.2 µM) | 2 (≈ 5.81 µM) | 4 (≈ 11.6 µM) | 2 (≈ 5.81 µM) | > 32 | 2 (≈ 5.81 µM) | 8 (≈ 23.2 µM) | 2 (≈ 5.81 µM) | 4 (≈ 11.6 µM) | MBC [3]: 32 µg/mL (≈ 92.9 µM); MBC [5]: 32 µg/mL (≈ 92.9 µM); MBC [6]: 16 µg/mL (≈ 46.5 µM); MBC [7]: 32 µg/mL (≈ 92.9 µM)
[H]/N=C(\N)NN=C1CCCc2cc(OCc3cccc(C(F)(F)F)c3)ccc21 [Compound 1I, (E)-2-(6-((3-(trifluoromethyl)benzyl)oxy)-3,4-dihydronaphthalen-1(2H)-ylidene)hydrazine-1-carboximidamide] | 4 (≈ 10.6 µM) | 8 (≈ 21.3 µM) | 2 (≈ 5.31 µM) | 16 (≈ 42.5 µM) | 32 (≈ 85 µM) | 8 (≈ 21.3 µM) | 8 (≈ 21.3 µM) | 32 (≈ 85 µM) | 4 (≈ 10.6 µM) | 2 (≈ 5.31 µM) | 2 (≈ 5.31 µM) | 4 (≈ 10.6 µM) | 1 (≈ 2.66 µM) | 4 (≈ 10.6 µM) | 2 (≈ 5.31 µM) | 4 (≈ 10.6 µM) | 2 (≈ 5.31 µM) | 2 (≈ 5.31 µM) | 2 (≈ 5.31 µM) | 2 (≈ 5.31 µM) | MBC [3]: 32 µg/mL (≈ 85 µM); MBC [5]: 32 µg/mL (≈ 85 µM); MBC [6]: 4 µg/mL (≈ 10.6 µM); MBC [7]: 16 µg/mL (≈ 42.5 µM)
[H]/N=C(\N)NN=C1CCCc2cc(OCc3ccc(C(F)(F)F)cc3)ccc21 [Compound 1J, (E)-2-(6-((4-(trifluoromethyl)benzyl)oxy)-3,4-dihydronaphthalen-1(2H)-ylidene)hydrazine-1-carboximidamide] | 2 (≈ 5.31 µM) | 4 (≈ 10.6 µM) | 2 (≈ 5.31 µM) | 16 (≈ 42.5 µM) | 16 (≈ 42.5 µM) | 8 (≈ 21.3 µM) | 8 (≈ 21.3 µM) | 16 (≈ 42.5 µM) | 4 (≈ 10.6 µM) | 1 (≈ 2.66 µM) | 2 (≈ 5.31 µM) | 32 (≈ 85 µM) | 2 (≈ 5.31 µM) | 2 (≈ 5.31 µM) | 2 (≈ 5.31 µM) | 16 (≈ 42.5 µM) | 2 (≈ 5.31 µM) | 4 (≈ 10.6 µM) | 2 (≈ 5.31 µM) | 2 (≈ 5.31 µM) | MBC [3]: 32 µg/mL (≈ 85 µM); MBC [5]: > 32 µg/mL; MBC [6]: 4 µg/mL (≈ 10.6 µM); MBC [7]: 8 µg/mL (≈ 21.3 µM)
[H]/N=C(\N)NN=C1CCCc2cc(OCc3cc(C(F)(F)F)cc(C(F)(F)F)c3)ccc21 [Compound 1K, (E)-2-(6-((3,5-bis(trifluoromethyl)benzyl)oxy)-3,4-dihydronaphthalen-1(2H)-ylidene)hydrazine-1-carboximidamide] | 4 (≈ 9 µM) | 16 (≈ 36 µM) | 32 (≈ 72 µM) | – | > 32 | > 32 | – | > 32 | > 32 | 16 (≈ 36 µM) | 8 (≈ 18 µM) | 32 (≈ 72 µM) | 4 (≈ 9 µM) | 16 (≈ 36 µM) | 4 (≈ 9 µM) | > 32 | 4 (≈ 9 µM) | 8 (≈ 18 µM) | 4 (≈ 9 µM) | 8 (≈ 18 µM) | –
[H]/N=C(\N)NN=C1CCCc2cc(OCc3ccccc3Br)ccc21 [Compound 1Q, (E)-2-(6-((2-bromobenzyl)oxy)-3,4-dihydronaphthalen-1(2H)-ylidene)hydrazine-1-carboximidamide] | 2 (≈ 5.16 µM) | 8 (≈ 20.7 µM) | 4 (≈ 10.3 µM) | 8 (≈ 20.7 µM) | 32 (≈ 82.6 µM) | 8 (≈ 20.7 µM) | 8 (≈ 20.7 µM) | > 32 | 4 (≈ 10.3 µM) | 1 (≈ 2.58 µM) | 2 (≈ 5.16 µM) | 8 (≈ 20.7 µM) | 2 (≈ 5.16 µM) | 4 (≈ 10.3 µM) | 2 (≈ 5.16 µM) | 4 (≈ 10.3 µM) | ≤ 1 | 4 (≈ 10.3 µM) | 2 (≈ 5.16 µM) | 2 (≈ 5.16 µM) | MBC [3]: 32 µg/mL (≈ 82.6 µM); MBC [6]: 4 µg/mL (≈ 10.3 µM); MBC [7]: 8 µg/mL (≈ 20.7 µM)
[H]/N=C(\N)NN=C1CCCc2cc(OCc3cccc(Br)c3)ccc21 [Compound 1R, (E)-2-(6-((3-bromobenzyl)oxy)-3,4-dihydronaphthalen-1(2H)-ylidene)hydrazine-1-carboximidamide] | 2 (≈ 5.16 µM) | 8 (≈ 20.7 µM) | 2 (≈ 5.16 µM) | 16 (≈ 41.3 µM) | 8 (≈ 20.7 µM) | 4 (≈ 10.3 µM) | 4 (≈ 10.3 µM) | > 32 | 8 (≈ 20.7 µM) | 2 (≈ 5.16 µM) | 2 (≈ 5.16 µM) | 4 (≈ 10.3 µM) | 2 (≈ 5.16 µM) | 4 (≈ 10.3 µM) | 2 (≈ 5.16 µM) | 4 (≈ 10.3 µM) | 2 (≈ 5.16 µM) | 8 (≈ 20.7 µM) | 2 (≈ 5.16 µM) | 16 (≈ 41.3 µM) | MBC [3]: 8 µg/mL (≈ 20.7 µM); MBC [6]: 8 µg/mL (≈ 20.7 µM); MBC [7]: 16 µg/mL (≈ 41.3 µM)
[H]/N=C(\N)NN=C1CCCc2cc(OCc3ccc(F)cc3Cl)ccc21 [Compound 1T, (E)-2-(6-((2-chloro-4-fluorobenzyl)oxy)-3,4-dihydronaphthalen-1(2H)-ylidene)hydrazine-1-carboximidamide] | 2 (≈ 5.54 µM) | 16 (≈ 44.3 µM) | 2 (≈ 5.54 µM) | 32 (≈ 88.7 µM) | > 32 | 16 (≈ 44.3 µM) | 32 (≈ 88.7 µM) | > 32 | 8 (≈ 22.2 µM) | 1 (≈ 2.77 µM) | 2 (≈ 5.54 µM) | 8 (≈ 22.2 µM) | 1 (≈ 2.77 µM) | 4 (≈ 11.1 µM) | 1 (≈ 2.77 µM) | 4 (≈ 11.1 µM) | 1 (≈ 2.77 µM) | 4 (≈ 11.1 µM) | 4 (≈ 11.1 µM) | 4 (≈ 11.1 µM) | MBC [6]: > 32 µg/mL; MBC [7]: 8 µg/mL (≈ 22.2 µM)
